Values belong to the compound of their own block, whether it stands above or below them.
Key:
[1] = Adsorption of surfactant compositions to the air-water interface (surface pressure vs time, Wilhelmy method); format: physicochemical; settings: Means ± SEM
Description: (§1) Surface activity of synthetic peptide/lipid surfactant compositions was assessed by either or both of the following methods: (1) measurement of the adsorption of surfactant compositions to the air-water interface as a function of time, and (2) measurement of overall dynamic surface activity on a pulsating bubble surfactometer (general methodological details of these two experimental techniques are described by Notter, Lung Surfactants: Basic Science and Clinical Applications, Marcel Dekker, Inc, New York (2000), which is hereby incorporated by reference in its entirety).
In adsorption studies, a given surfactant mixture was injected at time zero beneath the surface of a stirred surfactant-free subphase, and surface pressure (defined as surface tension lowering below that of the pure subphase) was measured as a function of time from the force on a hanging platinum slide (“Wilhelmy” method). By definition, higher surface pressure corresponds to lower surface tension (Notter, Lung Surfactants: Basic Science and Clinical Applications, Marcel Dekker, Inc, New York (2000)).

[2] = Pulsating bubble surfactometer, minimum surface tension; format: physicochemical; settings: Table 8, 37° C, 20 cycles/min, 50% area compression, 2.5 mg/ml phospholipid, Means ± SEM, N = 4
Description: as §1
In pulsating bubble studies, surface tension at minimum bubble radius (minimum surface tension) was determined as a function of time during pulsation on a bubble surfactometer (General Transco, Largo, Fla.) (37° C., 20 cycles/min, 50% area compression). A tiny air bubble was formed and pulsated between maximum and minimum radii of 0.55 and 0.4 mm, respectively, and the pressure drop across the air-water interface of the bubble was measured with a precision transducer. Minimum surface tension was calculated from the measured pressure drop at minimum radius (0.4 mm) from the Laplace equation (Enhorning, “Pulsating Bubble Technique for Evaluation of Pulmonary Surfactant,” J Appl Physiol 43:198-203 (1977); Hall et al., “Approximations in the Measurement of Surface Tension with the Oscillating Bubble Surfactometer,” J Appl Physiol 75:468-477 (1993), each of which is hereby incorporated by reference in its entirety). Measurements of overall surface activity on this instrument reflect the combined effects of adsorption and dynamic film compression at a cycling rate (20 cycles/min), temperature (37° C.), and area compression (50% compression from maximum to minimum area) relevant for the mammalian lungs in vivo (Notter, Lung Surfactants: Basic Science and Clinical Applications, Marcel Dekker, Inc, New York (2000); Enhorning, “Pulsating Bubble Technique for Evaluation of Pulmonary Surfactant,” J Appl Physiol 43:198-203 (1977); Notter et al., “Pulmonary Surfactant: Physical Chemistry, Physiology and Replacement,” Rev Chem Eng 13:1-118 (1997), each of which is hereby incorporated by reference in its entirety).

[3] = tested on: ventilated rabbits with ARDS induced by saline lavage; assay: Saline-lavage ventilated rabbit model of ARDS: arterial oxygenation and dynamic compliance; format: in vivo, New Zealand white rabbits; settings: intratracheal 100 mg/kg
Description: Saline lavage produces surfactant deficiency, alveolar collapse and lung edema in ventilated rats and rabbits, and is a useful experimental model for human ARDS. A saline-lavage rabbit model for lung injury was thus used to compare synthetic surfactants, with lipids only as negative control. Restoration of lung function was assessed by serial monitoring of gas exchange and lung mechanics. Physiological activity results for selected synthetic SP-B peptides are shown below, and physiological activity results for selected synthetic SP-C peptides are included in following Example 8.
Animal experiments were performed following established protocols approved by the Animal Care and Use Committee at the Los Angeles Biomedical Research Institute at Harbor-UCLA Medical Center. […] In brief, experimental animals were commercially available young adult male New Zealand white rabbits whose respiratory function was followed during mechanical ventilation by measurements of serial arterial blood gases and pulmonary compliance over the first 2 hours after a standardized saline lavage protocol. For this timeframe of study, the model reflected a relatively pure state of surfactant insufficiency in animals with mature lungs. Saline lavage administration was performed after induction of anesthesia, insertion of a venous line in a marginal ear vein, endotracheal intubation and initiation of mechanical ventilation, muscle paralysis, and insertion of a carotid arterial line. Heart rate, arterial blood pressure and rectal temperature were measured continuously. After stabilization on the ventilator, saline lavage was performed with repeated intratracheal instillation and removal of 30 mL of normal saline until the PaO2 dropped below 100 mm Hg (average 3 lavages). Maintenance fluid was provided by a continuous infusion of Lactated Ringer's solution at a rate of 10 ml/kg/h. Edema fluid appearing in the trachea was removed by suctioning. When the PaO2 was stable at less than 100 mm Hg in saline lavaged animals, an experimental or control surfactant mixture was instilled into the trachea at a dose of 100 mg/kg body weight and a concentration of 35 mg/mL. The rabbits were ventilated using a Harvard volume-controlled animal ventilator (tidal volume 7.5 ml/kg, a positive end-expiratory pressure [PEEP] of 3 cm H2O, an inspiratory/expiratory ratio of 1:2, 100% oxygen, and a respiratory rate to maintain a PaCO2 at ˜40 mm Hg). Airway flow and pressures and tidal volume were monitored continuously with a pneumotachograph connected to the endotracheal tube and a pneumotach system. Arterial pH and blood gases were done every 15 minutes. Dynamic lung compliance was calculated by dividing tidal volume/kg body weight by changes in airway pressure (peak inspiratory pressure minus positive end-expiratory pressure) (mL/kg/cmH2O). Animals were sacrificed 2 h after surfactant administration with an overdose of pentobarbital. End-points are pulmonary gas exchange (arterial pH, PaCO2 and PaO2) and pulmonary mechanics (dynamic compliance, postmortem pressure-volume curves). Each treatment group consisted of n=4-9 animals.
The in vivo pulmonary activity of reduced MB DATK and SMB DATK was investigated in comparison with oxidized SMB and MB (positive controls) and lipids alone (negative control) over 120 min, following intratracheal instillation of these surfactants into ventilated rabbits with ARDS induced by saline lavage. Oxidized SMB and MB were used as positive controls, because these SP-B mimics previously indicated high in vivo surfactant activities equal to those of native, full-length porcine SP-B in ventilated rats with ARDS (Walther et al., “Critical Structural and Functional Roles for the N-terminal Insertion Sequence in Surfactant Protein B Analogs,” PLoS One 5:e8672 (2010), which is hereby incorporated by reference in its entirety). […]

[4] = synthetic peptide; Walther et al. 2000; cited from earlier work
[5] = storage in organic solvent or in surfactant lipids for 4-6 weeks; Walther et al. 2007; cited from earlier work
[6] = Table 7, 0.0625 mg phospholipid/ml of subphase, normal saline pH 7.0, 37 ± 0.5° C, N = 4
[7] = Table 9, phospholipase-resistant lipids, 0.0625 mg phospholipid/ml, n = 4
[8] = Table 13, SP-B plus SP-C peptide (1.5%:1.5%) with resistant lipids or glycerophospholipids, 0.0625 mg phospholipid/ml, n = 4

Adsorption Surface Pressure at time 0 min [1, 6]: 0 ± 0.0 mN/m
Adsorption Surface Pressure at time 1 min [1, 6]: 12.9 ± 2.9 mN/m
Adsorption Surface Pressure at time 2 min [1, 6]: 16.0 ± 1.6 mN/m
Adsorption Surface Pressure at time 5 min [1, 6]: 17.8 ± 1.7 mN/m
Adsorption Surface Pressure at time 10 min [1, 6]: 18.0 ± 1.7 mN/m
Adsorption Surface Pressure at time 15 min [1, 6]: 18.2 ± 1.7 mN/m
Adsorption Surface Pressure at time 0 min [1, 7]: 0.0 ± 0.0 mN/m
Adsorption Surface Pressure at time 1 min [1, 7]: 12.9 ± 2.9 mN/m
Adsorption Surface Pressure at time 2 min [1, 7]: 16.0 ± 1.6 mN/m
Adsorption Surface Pressure at time 5 min [1, 7]: 17.8 ± 1.7 mN/m
Adsorption Surface Pressure at time 10 min [1, 7]: 18.0 ± 1.7 mN/m
Adsorption Surface Pressure at time 15 min [1, 7]: 18.2 ± 1.7 mN/m
Adsorption Surface Pressure at time 0 min [1, 8]: 0.0 ± 0.0 mN/m
Adsorption Surface Pressure at time 1 min [1, 8]: 12.9 ± 2.9 mN/m
Adsorption Surface Pressure at time 2 min [1, 8]: 16.0 ± 1.6 mN/m
Adsorption Surface Pressure at time 5 min [1, 8]: 17.8 ± 1.7 mN/m
Adsorption Surface Pressure at time 10 min [1, 8]: 18.0 ± 1.7 mN/m
Adsorption Surface Pressure at time 15 min [1, 8]: 18.2 ± 1.7 mN/m
Minimum Surface Tension at 0.25 min of bubble pulsation ([2]; 0.25 min): 31.2 ± 2.0 mN/m
Minimum Surface Tension at 0.5 min of bubble pulsation ([2]; 0.5 min): 27.1 ± 1.8 mN/m
Minimum Surface Tension at 1 min of bubble pulsation ([2]; 1 min): 21.2 ± 1.5 mN/m
Minimum Surface Tension at 2 min of bubble pulsation ([2]; 2 min): 14.6 ± 1.2 mN/m
Minimum Surface Tension at 5 min of bubble pulsation ([2]; 5 min): 7.8 ± 1.7 mN/m
Minimum Surface Tension at 10 min of bubble pulsation ([2]; 10 min): 1.5 ± 1.0 mN/m
Minimum Surface Tension at 15 min of bubble pulsation ([2]; 15 min): <1 mN/m
Compound: CCCCCCCCCCCCCCCCOCC(COP(=O)(O)CCC[N+](C)(C)C)OCCCCCCCCCCCCCCCC (racemic) [DEPN-8, [(±)-trimethyl(3-phosphonopropyl)ammonium, mono(2,3-bis(hexadecyloxy)propyl ester]]

Compound: GIPFFPVHLKRLLIVVVVVVLIVVVIVGALLMGL [SP-Cff]
Oxygenation and lung compliance after instillation (FIG. 2) ([3]; SP-C mimics 3.0% by weight in 5:3:2 (weight ratio) DPPC:POPC:POPG, PBS pH 7.4, 35 mg/mL): much less so
relative order of pulmonary activity in terms of oxygenation and lung compliance ([3]; SP-C mimics 3.0% by weight in 5:3:2 DPPC:POPC:POPG): SP-C33˜SP-Css ion-lock>SP-Cff>Lipids alone
solubility in chloroform-methanol [4]: low solubility
conformational stability upon storage (FTIR) [5]: self-associates to form β-sheet aggregates
